The supplement of paper PMC10307832

Key:
Experiment in all cases: relative viability (nuclei count vs DMSO), 5 days (fraction); higher = more cells survive
[1] = compound: CS(=O)(=O)N1CCN(Cc2cc3nc(-c4cccc5[nH]ncc45)nc(N4CCOCC4)c3s2)CC1 [Pictilisib] + COc1cccc2cc(-c3nc([C@H]4CC[C@H](C(=O)O)CC4)n4ncnc(N)c34)[nH]c12 [OSI-027] (partner 0.5 µM)
How it was run: (§1)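 One day after seeding in 1536-well plates, lung cancer cell lines were dosed by pin tool. Dosing was either single-drug or a fixed anchor-drug dose plus five library-drug doses (not always all listed) in √10 steps. After 5 days, nuclei were stained in one fix-and-stain step and counted on 4× images, and relative viability is the nuclei count of treated wells over that of vehicle wells, given as the median of duplicate plates.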

[2] = compound: CS(=O)(=O)N1CCN(Cc2cc3nc(-c4cccc5[nH]ncc45)nc(N4CCOCC4)c3s2)CC1 [Pictilisib] + C[C@]1(O)C[C@@H](c2nc(-c3ccc4ccc(-c5ccccc5)nc4c3)c3c(N)nccn32)C1 [Linsitinib] (partner 1 µM)
How it was run: as §1

[3] = compound: CS(=O)(=O)N1CCN(Cc2cc3nc(-c4cccc5[nH]ncc45)nc(N4CCOCC4)c3s2)CC1 [Pictilisib] + COc1cc2c(Oc3ccc(NC(=O)C4(C(=O)Nc5ccc(F)cc5)CC4)cc3F)ccnc2cc1OCCCN1CCOCC1 [Foretinib] (partner 0.25 µM)
How it was run: as §1

[4] = compound: NC1(c2ccc(-c3nc4ccn5c(=O)[nH]nc5c4cc3-c3ccccc3)cc2)CCC1 [MK-2206] + Cc1nc(NC(=O)N2CCC[C@H]2C(N)=O)sc1-c1ccnc(C(C)(C)C(F)(F)F)c1 [Alpelisib] (partner 2 µM)
How it was run: as §1

[5] = compound: CS(=O)(=O)N1CCN(Cc2cc3nc(-c4cccc5[nH]ncc45)nc(N4CCOCC4)c3s2)CC1 [Pictilisib] + O=C(c1cc(Cc2n[nH]c(=O)c3ccccc23)ccc1F)N1CCN(C(=O)C2CC2)CC1 [Olaparib] (partner 8 µM)
How it was run: as §1

Cell Line	relative viability ([1]; first compound 0.02 µM)	relative viability ([1]; first compound 0.06325 µM)	relative viability ([1]; first compound 0.6325 µM)	relative viability ([1]; first compound 2 µM)	relative viability ([2]; first compound 0.02 µM)	relative viability ([2]; first compound 0.06325 µM)	relative viability ([2]; first compound 0.6325 µM)	relative viability ([2]; first compound 2 µM)	relative viability ([3]; first compound 0.02 µM)	relative viability ([3]; first compound 0.06325 µM)	relative viability ([3]; first compound 0.6325 µM)	relative viability ([3]; first compound 2 µM)	relative viability ([4]; first compound 0.01 µM)	relative viability ([4]; first compound 0.03162 µM)	relative viability ([4]; first compound 0.3162 µM)	relative viability ([4]; first compound 1 µM)	relative viability ([5]; first compound 0.02 µM)	relative viability ([5]; first compound 0.06325 µM)	relative viability ([5]; first compound 0.6325 µM)	relative viability ([5]; first compound 2 µM)
201T	0.757	0.683	0.503	0.281	0.989	1.05	0.902	0.82	1.06	1.07	0.846	0.617	0.97	1.05	0.958	0.958	0.844	0.815	0.811	0.604
A549					0.674	0.606	0.476	0.307	1.04	0.937	0.771	0.431	0.841	0.791	0.534	0.529	0.441	0.355	0.283	0.211
A-427	0.492	0.405	0.393	0.351	1.11	1.13	1.1	1.08	1.15	0.929	1	0.604	1.12	1.12	1.06	1.08	0.721	0.712	0.71	0.552
ABC-1	0.434	0.462	0.337	0.335	0.863	0.783	0.651	0.635	1.37	0.903	0.863	0.803	0.964	0.915	0.848	0.812	0.781	0.721	0.79	0.721
BEN	0.309	0.293	0.286	0.273	0.948	0.891	0.947	0.683	0.83	0.599	0.587	0.538	0.998	1.11	1.08	1.1	1.03	1.11	1.02	0.978
CAL-12T	0.8	0.642	0.339	0.167	0.986	0.732	0.807	0.424	1.09	1.14	1.08	0.918	1.04	1.03	1.05	0.895	0.761	0.785	0.754	0.523
COR-L23	0.767	0.809	0.732	0.372	0.914	0.886	0.878	0.387	1.01	1.07	0.979	0.934	0.82	0.904	0.681	0.686	0.316	0.319	0.337	0.327
COR-L 105	0.735	0.629	0.472	0.28	0.882	0.933	0.819	0.486	1.08	1.09	0.996	0.49	0.98	0.951	0.825	0.677	0.667	0.697	0.734	0.549
Calu-6					0.981	1.02	0.868	0.829	0.979	0.959	0.834	0.703	1.13	1.01	0.994	0.909	0.656	0.554	0.589	0.519
ChaGo-K-1	0.586	0.626	0.411	0.314					0.896	0.924	0.838	0.721					0.44	0.381	0.5	0.332
EBC-1					1.02	0.966	0.768	0.195	0.122	0.0955	0.112	0.115	0.767	0.843	0.388	0.28	0.681	0.741	0.564	0.243
EKVX	0.697	0.352	0.561	0.269	1.02	0.948	0.749	0.429	0.855	0.88	0.721	0.438	0.761	0.904	0.843	0.82	0.962	0.828	0.777	0.406
EMC-BAC-2	0.378	0.364	0.26	0.245	0.809	0.787	0.716	0.538	0.946	0.922	0.813	0.664	0.768	0.764	0.729	0.693	0.513	0.52	0.407	0.334
EPLC-272H	0.296	0.284	0.242	0.18	1.2	1.19	0.875	0.865	0.711	0.687	0.376	0.173	0.993	0.851		0.929	0.773	0.731	0.36	0.241
H3255	0.58	0.578	0.389	0.309	1.04	0.823	0.84	0.467	0.813	0.884	0.571	0.494	0.694	0.748	0.53	0.6	0.585	0.599	0.472	0.412
HARA	0.477	0.507	0.202	0.133	0.979	1.06	0.803	0.353	0.828	0.906	0.851	0.581	0.789	0.745	0.611	0.582	0.837	0.97	0.92	0.358
HCC-15	0.693	0.641	0.407	0.32	0.852	0.928	0.87	0.762	1.07	0.966	0.852	0.659	0.836	0.884	0.859	0.832	0.758	0.772	0.638	0.504
HCC-44	0.587	0.5	0.405	0.266	0.607	0.627	0.609	0.303					0.784	0.767	0.633	0.59	1.02	1.06	1.12	0.915

Cell Line	relative viability ([1]; first compound 0.02 µM)	relative viability ([1]; first compound 0.06325 µM)	relative viability ([1]; first compound 0.6325 µM)	relative viability ([1]; first compound 2 µM)	relative viability ([2]; first compound 0.02 µM)	relative viability ([2]; first compound 0.06325 µM)	relative viability ([2]; first compound 0.6325 µM)	relative viability ([2]; first compound 2 µM)	relative viability ([3]; first compound 0.02 µM)	relative viability ([3]; first compound 0.06325 µM)	relative viability ([3]; first compound 0.6325 µM)	relative viability ([3]; first compound 2 µM)	relative viability ([4]; first compound 0.01 µM)	relative viability ([4]; first compound 0.03162 µM)	relative viability ([4]; first compound 0.3162 µM)	relative viability ([4]; first compound 1 µM)	relative viability ([5]; first compound 0.02 µM)	relative viability ([5]; first compound 0.06325 µM)	relative viability ([5]; first compound 0.6325 µM)	relative viability ([5]; first compound 2 µM)
HCC-78	0.334	0.376	0.285	0.275	0.508	0.413	0.318	0.226	0.488	0.5	0.392	0.308	0.372	0.336	0.256	0.21	0.727	0.548	0.529	0.351
HCC-366	0.955	0.822	0.432	0.104	0.776	0.448	0.256	0.0873	0.978	0.936	0.68	0.329	0.526	0.48	0.244	0.212	0.401	0.357	0.199	0.077
HCC-827	0.824	0.696	0.338	0.192	0.938	1.01	1.03	0.711	0.996	1.04	0.931	0.392	1.07	1.05	0.821	0.816	0.795	0.512	0.433	0.284
HOP-62	0.929	0.868	0.666	0.535	1.03	0.868	0.759	0.779	1.05	1.16	1.05	1.03	1.14	0.925	1.03	0.914	0.389	0.556	0.512	0.446
IA-LM					0.482	0.7	0.757	0.249	1.2	1.14	0.894	0.518	0.809	0.869	0.578	0.544	0.952	0.987	0.792	0.516
LC-2-ad	0.881	0.781	0.475	0.396	0.848	0.801	0.326	0.36	0.959	0.948	0.662	0.491	0.888	0.847	0.802	0.793	0.745	0.758	0.788	0.656
LCLC-97TM1	0.4	0.488	0.301	0.253	0.17	0.161	0.189	0.17	0.991	0.972	0.714	0.239	0.316	0.261	0.185	0.204	0.446	0.379	0.289	0.112
NCI-H522	0.635	0.719	0.64	0.57													0.619	0.663	0.561	0.493
NCI-H1299					1.03	1.01	0.991	0.864	1.06	1.19	1.22	1.06	1.03	1.05	1.03	1.03	0.996	1.01	1.03	0.858
NCI-H1563	0.737	0.713	0.554	0.57	1.16	1.1	0.835	0.6	0.839	0.935	0.674	0.532	0.934	0.764	0.695	0.656				
NCI-H1623	0.431	0.414	0.342	0.244					0.773	0.792	0.639	0.348								
NCI-H1648	0.256	0.248	0.275	0.266													0.701	0.561	0.355	0.264
NCI-H1650	0.677	0.713	0.368	0.207					1.25	1.39	1.03	0.441					0.593	0.759	0.761	0.691
NCI-H1703					1.19	0.634	0.347	0.137	0.34	0.372	0.321	0.27	0.355	0.366	0.317	0.416	0.471	0.378	0.214	0.122
NCI-H1792	0.752	0.617	0.335	0.173	0.502	0.547	0.446	0.262					0.673	0.652	0.706	0.773	0.386	0.294	0.261	0.0715
NCI-H2170	0.776	0.711	0.642	0.418					1	0.983	0.827	0.772	0.82	0.835	0.755	0.776	0.608	0.508	0.562	0.33
NCI-H2342	0.541	0.605	0.551	0.417					0.991	1.02	0.805	0.539					0.446	0.379	0.406	0.242
SW 900	0.655	0.715	0.501	0.289					0.93	0.815	0.774	0.533					0.793	0.818	0.713	0.471
